Test results published in patent publication US20240294876A1, “METHODS FOR THE EXPANSION OF HUMAN GRANULOCYTE-MACROPHAGE PROGENITORS AND APPLICATIONS THEREOF” (University of Southern California, priority 2021, published 2024).

B1: G-CSF: granulocyte colony stimulating factor (protein, UniProt P09919 31-207, looked up)
Granulocyte …: TPLGPASSLPQSFLLKCLEQVRKIQGDGAALQEKLVSECATYKLCHPEELVLLGHSLGIPWAPLSSCPSQALQLAGCLSQLHSGLFLYQGLLQALEGISPELGPTLDTLQLDVADFATTIWQQMEELGMAPALQPTQGAMPAFASAFQRRAGGVLVASHLQSFLEVSYRVLRHLAQP
B2: M-CSF: macrophage differentiation factor (protein, UniProt P09603 33-554, looked up)
Macrophage colony-stimulating …: EEVSEYCSHMIGSGHLQSLQRLIDSQMETSCQITFEFVDQEQLKDPVCYLKKAFLLVQDIMEDTMRFRDNTPNAIAIVQLQELSLRLKSCFTKDYEEHDKACVRTFYETPLQLLEKVKNVFNETKNLLDKDWNIFSKNCNNSFAECSSQDVVTKPDCNCLYPKAIPSSDPASVSPHQPLAPSMAPVAGLTWEDSEGTEGSSLLPGEQPLHTVDPGSAKQRPPRSTCQSFEPPETPVVKDSTIGGSPQPRPSVGAFNPGMEDILDSAMGTNWVPEEASGEASEIPVPQGTELSPSRPGGGSMQTEPARPSNFLSASSPLPASAKGQQPADVTGTALPRVGPVRPTGQDWNHTPQKTDHPSALLRDPPEPGSPRISSLRPQGLSNPSTLSAQPQLSRSHSSGSVLPLGELEGRRSTRDRRSPAEPEGGPASEGAARPLPRFNSVPLTDTGHERQSEGSFSPQLQESVFHLLVPSVILVLLAVGGLLFYRWRRRSHQEPQRADSPLEQPEGSPLTQDDRQVELPV

Legend:
[1] = system: bone marrow cells isolated from adult C57BL/6 mice; assay: Small molecule screen for colony formation of mouse bone marrow cells in serum-free N2B27; format: cell-based; settings: 96-well plates, serum-free N2B27, single small molecule, 7 days in culture
Text: (§1) (A) Schematic of the experimental design to identify growth factors and small molecules that can promote expansion of mouse bone marrow-derived stem cells. (B) Representative phase-contrast images of mouse bone marrow cells cultured in N2B27 supplemented with the indicated small molecule inhibitors for 7 days. (C) Representative phase-contrast images of mouse bone marrow cells cultured in N2B27 supplemented with SCF plus GDC0879 or SB590885 for 3 passages. (D) Cell growth curves. Bone marrow cells isolated from C57BL/6J mice were plated into 24-well plates at a density of 2×10^5 cells/well and cultured in B7 medium supplemented with the indicated small molecules/growth factor. Cells were counted and passaged every 3 days. Data are represented as mean±SD from three independent experiments. (E) Bone marrow cells isolated from C57BL/6J mice were cultured in B7 medium supplemented with SCF/2i. Cells were passaged every 3 days. Representative phase-contrast pictures showing SCF/2i cells at different passages. (F) Cytogenetic analysis of SCF/2i cells using the GWT banding method. Bone marrow cells isolated from a female C57BL/6J mouse were expanded in SCF/2i for 8 passages before used for cytogenetic analysis. […] (G) Sequential images of individual bone marrow cells during expansion in B7 medium supplemented with SCF/2i. SCF/2i-expanded bone marrow cells were plated into 96-well plates at a density of 50 cells/well and cultured in SCF/2i. Sequential images were taken using the Keyence BZ-X710 microscopy every 24 hours. 15.7±4.0 colonies formed per well on day 4 (n=3×96). Data are represented as mean±SD from three independent experiments.
Based on this finding, it was postulated that many, if not all, types of stem cells can be maintained during long-term in vitro culture by inhibiting signaling pathways responsible for initiating differentiation. […]

mouse GMPs = assay: Ex vivo expansion of mouse bone marrow-derived cells / mouse GMPs; format: cell-based; settings: for ability to mimic the effect of SKL2001 for the expansion of mouse GMPs: in place of SKL2001; for effect on expansion of mouse GMPs in SCF/2i: Wnt/β-catenin signaling inhibitor added to SCF/2i
Text: as §1
Mouse GMP derivation, expansion, and differentiation. Cells were cultured at 37° C. in a 5% CO2 water jacket incubator (Thermo Scientific). Bone marrow cells isolated from C57BL/6J, mTmG or CAG-Cas9-EGFP mice were plated into 6-well plates at a density of 2×10^6 cells/well and cultured in 2 mL B7 medium supplemented with 50 ng/mL SCF, 1 μM GDC-0879, and 10 μM SKL2001 (SCF/2i). After 3-4 days, cells were dissociated into single-cell suspension by pipetting up and down and replated into 6-well plates at a density of 2×10^6 cells/well and cultured in 2 mL B7 medium supplemented with SCF/2i. After 2 passages in SCF/2i, the majority of cells were GMPs. GMPs were routinely passaged every 3 days. To induce differentiation, GMPs were plated into 10 cm tissue culture dishes and cultured in RPMI-1640 medium containing 10% FBS and supplemented with either 20 ng/mL M-CSF (for macrophage differentiation) or 20 ng/mL G-CSF (for granulocyte differentiation). GMP-derived macrophages were harvested on day 7 (medium was changed once on day 4) and GMP-derived granulocytes were harvested on day 3 and used for the further experiments.
Development of defined conditions for the long-term ex vivo expansion of hematopoietic stem/progenitor cells. To develop conditions for the long-term expansion of stem or progenitor cells of the hematopoietic system, screening was conducted to identify small molecules and growth factors/cytokines that can promote their ex vivo expansion (see FIG. 3A). Specifically, bone marrow cells isolated from adult C57BL/6 mice were plated into 96-well plates in serum-free N2B27 medium. Then a first-round small molecule screening was performed. It was reasoned that if a small molecule can block differentiation or promote expansion of stem cells, these stem cells should form colonies with a uniform cell morphology. […] Upon passaging, however, no new colonies were formed in culture with any of the 5 small molecule inhibitors. A second-round screening was conducted to identify growth factors/cytokines that could further improve the expansion of the colonies.
More importantly, these cells could be expanded robustly at clonal density (see FIG. 3G).
SCF/2i-expanded cells are GMPs. […]

myeloperoxidase (MPO) = target: T1, myeloperoxidase (MPO) (Mus musculus, UniProt P11247); assay: Myeloperoxidase (MPO) activity assay in SCF/2i GMP-derived granulocytes and blood neutrophils; format: cell-based; settings: 100 nM for 2 hours
T1 construct: The supernatants were harvested and MPO activities were measured using the neutrophil MPO activity assay kit; endogenous in cells; host or cells: mouse SCF/2i GMPs, SCF/2i GMP-derived granulocytes and mouse blood neutrophils; MPO measured in culture supernatant after PMA stimulation
T1 sequence (P11247 139-718): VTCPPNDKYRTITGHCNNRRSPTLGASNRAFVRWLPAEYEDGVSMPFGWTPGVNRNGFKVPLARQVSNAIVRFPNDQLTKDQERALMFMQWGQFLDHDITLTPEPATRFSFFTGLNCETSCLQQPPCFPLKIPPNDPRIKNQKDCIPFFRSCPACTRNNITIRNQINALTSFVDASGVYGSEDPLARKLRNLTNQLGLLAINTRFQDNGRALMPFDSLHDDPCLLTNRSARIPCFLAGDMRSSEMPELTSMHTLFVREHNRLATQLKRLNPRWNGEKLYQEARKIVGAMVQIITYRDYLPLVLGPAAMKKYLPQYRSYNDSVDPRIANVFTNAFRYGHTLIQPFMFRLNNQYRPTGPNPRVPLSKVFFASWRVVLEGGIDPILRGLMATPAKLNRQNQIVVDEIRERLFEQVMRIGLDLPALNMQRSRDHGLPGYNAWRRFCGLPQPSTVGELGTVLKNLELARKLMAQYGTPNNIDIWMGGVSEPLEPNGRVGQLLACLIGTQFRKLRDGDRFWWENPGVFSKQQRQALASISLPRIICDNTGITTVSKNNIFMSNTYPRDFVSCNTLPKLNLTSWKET
Method: (F) ELISA analysis of cytokine secretion and MPO activity measurement in the indicated cells stimulated with 500 ng/ml LPS for 6 hours (for ELISA assay) or 100 nM PMA for 2 hours (for MPO assay). Data are represented as mean±SD from three independent experiments. Ctrl, no treatment control; ns, not significant.
Myeloperoxidase (MPO) assay. SCF/2i GMPs, blood neutrophils and SCF/2i GMP-derived granulocytes were plated into 96-well plates at a density of 2×10^4 cells/well and cultured in 100 μl RPMI 1640 medium supplemented with 10% FBS. […] The supernatants were harvested and MPO activities were measured using the neutrophil MPO activity assay kit (Cayman, 600620) according to the manufacturer's instructions.

SCF/2i GMPs = assay: In vitro differentiation of SCF/2i GMPs, flow cytometry; format: cell-based, mouse
Method: (A) Immunofluorescence and flow cytometry analysis of CD11b and F4/80 expression in cells differentiated from SCF/2i GMPs after treatment with M-CSF for 7 days. Flow cytometry data are represented as mean±SD from three independent experiments. (B) ELISA analysis of cytokine secretion in bone marrow (BM) and SCF/2i GMP-derived macrophages stimulated with 500 ng/ml LPS for 6 hours. Data are represented as mean±SD from three independent experiments. (C) Phagocytosis analysis of SCF/2i GMP-derived macrophages by incubating with FITC-labeled latex beads for 1 hour. Upper panel, a representative fluorescent image (green, FITC-labeled beads; blue, macrophage cell nuclei). Lower panel, flow cytometry analysis of SCF/2i GMP-derived macrophages incubated with (red) or without (blue) FITC-labeled latex beads. Flow cytometry data are represented as mean±SD from three independent experiments. (D) Time-lapse images of tdTomato-positive SCF/2i GMP-derived macrophages incubated with GFP labeled E. coli. The numbers on the images indicate the times in minutes. Arrows and arrowheads indicate the bacteria engulfed by macrophages. (E) Giemsa staining (upper panel) and flow cytometry analysis (lower panel) of SCF/2i GMPs treated with PBS or G-CSF for 3 days. Flow cytometry data are represented as mean±SD (n=5). […] A total of 192×3 wells from three independent experiments were counted for each group. […]

Molecule	formation of colonies with uniform cell morphology [1]	ability to mimic the effect of SKL2001 for the expansion of mouse GMPs (mouse GMPs)	other results
Cc1cccc(-c2nn(C(=S)Nc3ccccc3)cc2-c2ccnc3ccccc23)n1 [A-8301]	clusters of colonies were observed being formed	–	–
Cc1c[nH]c(-c2cnc(NCCNc3ccc(C#N)cn3)nc2-c2ccc(Cl)cc2Cl)n1 [CHIR99021]	–	could not mimic the effect of SKL2001	–
Cc1cc([N+](=O)[O-])ccc1NS(=O)(=O)c1cc(Cl)ccc1Cl [FH535]	–	–	effect on expansion of mouse GMPs in SCF/2i (mouse GMPs): not affected
O=C(Nc1cccc2cccnc12)c1ccc(N2C(=O)[C@@H]3[C@H](C2=O)[C@@H]2C=C[C@H]3C2)cc1 [IWR1]	clusters of colonies were observed being formed	–	effect on expansion of mouse GMPs in SCF/2i (mouse GMPs): not affected
CCCCCCCCCCCCCC(=O)O[C@@H]1[C@@H](C)[C@@]2(O)[C@@H](C=C(CO)C[C@]3(O)C(=O)C(C)=C[C@@H]23)[C@@H]2C(C)(C)[C@]12OC(C)=O [PMA, phorbol myristate acetate]	–	–	MPO activity upon activation (myeloperoxidase (MPO)): significantly increased
C[S+]([O-])c1ccc(-c2nc(-c3ccncc3)c(-c3ccc(F)cc3)[nH]2)cc1 (centres unmarked) [SB203580]	clusters of colonies were observed being formed	–	–
COc1cccc(-c2cc(NCc3ccc4c(c3)OCO4)nc(N)n2)c1 [Wnt agonist 1]	–	could not mimic the effect of SKL2001	–
Wnt3a	–	could not mimic the effect of SKL2001	–
B1	–	–	cells Ly6G+CD115− (SCF/2i GMPs; SCF/2i GMPs treated for 3 days): more than 80%
B2	–	–	cells positive for both F4/80 and CD11b (SCF/2i GMPs; SCF/2i GMPs treated for 7 days): more than 99%
